Results on 14 compounds are retold here after patent US7932262B2 (Novartis AG, priority 2006, dated 2011).

One test concerns A2780 cells. Kind of test: Cell Proliferation Assay (Cell Titer Glo), A2780. Type of test: cell-based. The settings on record: Homo sapiens, 72 h; A2780 cells, 3 days incubation; read-out: CPEC50 A2780. As to the method: IV. Cell Proliferation Assay Protocol:
A2780, PC-3, or PC3MM cells were seeded at 1000 cells/well in 100 μL/well (10.000 cells/mL) growth media in 96-well plates. Cells were allowed to adhere to the bottom of plates for 3-5 hours in a 37° C. 5% CO2 incubator. Compounds were dissolved in DMSO and then transferred to the cell plates. The cells were incubated with the compounds for 3 days in a 37° C. 5% CO2 incubator. The growth medium containing the compounds was then removed from the cells and fresh medium was added, followed by 100 μL of Cell Titer Glo assay reagent (Promega). This mixture was shaken for 1 minute and then incubated without shaking for 10 minutes. Activity determinations for the compounds were made by detection on a Trilux Instrument.

A further test concerns the target T1, PDK1 kinase (Homo sapiens, UniProt O15530).
T1 sequence (O15530 1-556): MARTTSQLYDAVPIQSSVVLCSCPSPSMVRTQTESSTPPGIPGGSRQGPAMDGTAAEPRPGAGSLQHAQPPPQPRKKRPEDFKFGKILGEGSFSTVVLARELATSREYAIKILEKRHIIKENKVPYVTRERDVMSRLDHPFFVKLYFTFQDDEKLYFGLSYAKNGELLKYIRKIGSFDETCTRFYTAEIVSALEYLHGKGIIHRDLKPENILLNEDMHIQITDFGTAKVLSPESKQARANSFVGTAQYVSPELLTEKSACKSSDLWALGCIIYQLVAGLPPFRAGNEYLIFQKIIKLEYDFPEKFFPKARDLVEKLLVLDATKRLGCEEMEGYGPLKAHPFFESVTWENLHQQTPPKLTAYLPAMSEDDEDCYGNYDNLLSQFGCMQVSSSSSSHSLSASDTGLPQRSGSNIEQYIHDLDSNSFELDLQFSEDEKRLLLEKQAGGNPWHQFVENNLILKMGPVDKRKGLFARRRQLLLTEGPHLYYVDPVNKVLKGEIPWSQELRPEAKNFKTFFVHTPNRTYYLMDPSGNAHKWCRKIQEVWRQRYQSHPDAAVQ
Kind of test: PDK1 Kinase Alpha Screen Assay. Type of test: biochemical. The note with it: read-out: PDK1 IC50. An outline of the steps:
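AlphaScreen readout: phospho-peptide captured by phospho-(Ser/Thr) PKA substrate antibody (0.3 mg/ml) on protein A acceptor beads, biotin peptide on streptavidin donor beads (25 μg/ml each), overnight at room temperature. Kinase step used 50 nM PDK1-4 peptide, 10 uM ATP, 3-18 hours.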

Consider `CCN1CC(Oc2cccc3cnc(Nc4ccc(S(N)(=O)=O)cc4)nc23)C1` [Compound 50, 4-[8-(1-Ethyl-azetidin-3-yloxy)-quinazolin-2-ylamino]-benzenesulfonamide], for which the EC50 in the test on A2780 cells is under 5 µM. Also, the IC50 at PDK1 kinase is under 5 µM.

Consider `NS(=O)(=O)c1ccc(Nc2ncc3ccc(-c4ccc5c(c4)CCNC5=O)c(OC4CCNCC4)c3n2)cc1` [Compound 64, 4-[7-(1-Oxo-1,2,3,4-tetrahydro-isoquinolin-6-yl)-8-(piperidin-4-yloxy)-quinazolin-2-ylamino]-benzenesulfonamide], for which, in the test on A2780 cells, the EC50 is 5 to 10 µM. Moreover, the IC50 at PDK1 kinase was under 5 µM.

As to `CC(=O)c1ccc(-c2cccc3cnc(Nc4ccc(S(N)(=O)=O)cc4)nc23)cc1` [Compound 88, 4-[8-(4-Acetyl-phenyl)-quinazolin-2-ylamino]-benzenesulfonamide], the EC50 in the test on A2780 cells is 5 to 10 µM. In addition, the half-inhibitory concentration (IC50) on PDK1 kinase is under 5 µM.

Turning to `NS(=O)(=O)c1ccc(Nc2ncc3cccc(-c4ccc(-c5ccn[nH]5)cc4)c3n2)cc1` [Compound 89, 4-{8-[4-(2H-Pyrazol-3-yl)-phenyl]-quinazolin-2-ylamino}-benzenesulfonamide], the EC50 in the test with A2780 cells is under 5 µM. Besides, the 50% inhibitory concentration (IC50) at PDK1 kinase is under 5 µM.

As to `NC(=O)c1cccc(-c2cccc3cnc(Nc4ccc(S(N)(=O)=O)cc4)nc23)c1` [Compound 90, 3-[2-(4-Sulfamoyl-phenylamino)-quinazolin-8-yl]-benzamide], the EC50 in the test on A2780 cells is under 5 µM. For the same compound, the half-maximal inhibitory concentration (IC50) on PDK1 kinase is under 5 µM.

In the case of `CS(=O)(=O)c1cccc(-c2cccc3cnc(Nc4ccc(S(N)(=O)=O)cc4)nc23)c1` [Compound 91, 4-[8-(3-Methanesulfonyl-phenyl)-quinazolin-2-ylamino]-benzenesulfonamide], the EC50 in the test on A2780 cells was under 5 µM. Also, at PDK1 kinase, the IC50 is under 5 µM.

`CS(=O)(=O)Nc1cccc(-c2cccc3cnc(Nc4ccc(S(N)(=O)=O)cc4)nc23)c1` [Compound 92, 4-[8-(3-Methanesulfonylamino-phenyl)-quinazolin-2-ylamino]-benzenesulfonamide]: the EC50 in the test with A2780 cells is under 5 µM. At PDK1 kinase, the half-maximal inhibitory concentration (IC50) was under 5 µM.

Turning to `CC(=O)Nc1cccc(-c2cccc3cnc(Nc4ccc(S(N)(=O)=O)cc4)nc23)c1` [Compound 93, N-{3-[2-(4-Sulfamoyl-phenylamino)-quinazolin-8-yl]-phenyl}-acetamide], the EC50 in the test with A2780 cells is under 5 µM. Besides, the IC50 at PDK1 kinase was under 5 µM.

Regarding `NS(=O)(=O)c1ccc(Nc2ncc3cccc(-c4ccc5c(c4)OCO5)c3n2)cc1` [Compound 95, 4-(8-Benzo[1,3]dioxol-5-yl-quinazolin-2-ylamino)-benzenesulfonamide], in the test with A2780 cells, the EC50 was under 5 µM. Moreover, the IC50 at PDK1 kinase is under 5 µM.

`NC(=O)c1ccc(-c2cccc3cnc(Nc4ccc(S(N)(=O)=O)cc4)nc23)cc1` [Compound 96, 4-[2-(4-Sulfamoyl-phenylamino)-quinazolin-8-yl]-benzamide]: the EC50 with A2780 cells is under 5 µM. Further, the IC50 on PDK1 kinase is under 5 µM.

Turning to `NS(=O)(=O)c1ccc(Nc2ncc3cccc(-c4ccnc(F)c4)c3n2)cc1` [Compound 97, 4-[8-(2-Fluoro-pyridin-4-yl)-quinazolin-2-ylamino]-benzenesulfonamide], in the test on A2780 cells, the EC50 was under 5 µM. The IC50 at PDK1 kinase is under 5 µM.

As to `NS(=O)(=O)c1ccc(Nc2ncc3cccc(-c4cccnc4)c3n2)cc1` [Compound 98, 4-(8-Pyridin-3-yl-quinazolin-2-ylamino)-benzenesulfonamide], the EC50 in the test with A2780 cells lay within 5 to 10 µM. At PDK1 kinase, the 50% inhibitory concentration (IC50) was under 5 µM.

For `NS(=O)(=O)c1ccc(Nc2ncc3cccc(-c4ccncc4)c3n2)cc1` [Compound 99, 4-(8-Pyridin-4-yl-quinazolin-2-ylamino)-benzenesulfonamide], the EC50 in the test on A2780 cells was in the range of 5 to 10 µM. The IC50 on PDK1 kinase is under 5 µM.

`COCCNc1cc(-c2cccc3cnc(Nc4ccc(S(N)(=O)=O)cc4)nc23)ccn1` [Compound 100, 4-{8-[2-(2-Methoxy-ethylamino)-pyridin-4-yl]-quinazolin-2-ylamino}-benzenesulfonamide]: in the test with A2780 cells, the EC50 was under 5 µM. On PDK1 kinase, the IC50 is under 5 µM.
